Measurements: PMC11882969 (Nature Communications, 2025)
Values joined by “and” are separate entries in the source; they are usually repeats but may differ in a detail not shown here. Identical values can stand only once.

Assays:
[1] = target: panel of 320 non-olfactory GPCRs (Homo sapiens, UniProt O14843); format: cell-based
[2] = target: panel of 320 non-olfactory GPCRs (Homo sapiens, UniProt O95665); format: cell-based
[3] = target: panel of 320 non-olfactory GPCRs (Homo sapiens, UniProt P07550); format: cell-based
[4] = target: panel of 320 non-olfactory GPCRs (Homo sapiens, UniProt P50391); format: cell-based
[5] = target: panel of 320 non-olfactory GPCRs (Homo sapiens, UniProt Q8IZ08); format: cell-based
[6] = target: panel of 320 non-olfactory GPCRs (Homo sapiens, UniProt Q8TDS5); format: cell-based
[7] = target: panel of 320 non-olfactory GPCRs (Homo sapiens, UniProt Q96CH1); format: cell-based
[8] = target: panel of 320 non-olfactory GPCRs (Homo sapiens, UniProt Q9H3N8); format: cell-based
mice [9] = test: CFA inflammatory pain model; format: in vivo, mouse
Description: The CFA model of chronic inflammation was induced as described previously. Briefly, CFA (Sigma) was diluted 1:1 with saline and vortexed for 30 min. When fully suspended, we injected 20 μL of CFA into one hindpaw. Heat thresholds were measured before the injection (baseline) and 3 days after the injection using the Hargreaves test.

mice [10] = test: Conditioned place preference; format: in vivo, mouse
Description: Briefly, mice were first habituated to the test apparatus, twice, and their preference for each chamber recorded for 30 min (Pretest). Two conditioning days followed in which mice received the vehicle control or the compound, and 30 min later restricted for 30 min in the preferred or non-preferred chamber, respectively. On day 5 (Test day), mice were allowed to roam freely between the 3 chambers of the apparatus and their preference for each chamber recorded for 30 min. To calculate the CPP score, we subtracted the time spent in each chamber of the box on the Pretest day from that of the Test day (CPP score = Test - Pretest).

mice [11] = test: Formalin test; format: in vivo, mouse; conditions: for formalin test response per time bin (Figure5c), individual animals: 0.2 mg/kg
Description: Thirty min after an i.p. injection of the compounds, mice received an intraplantar injection of a 20μL solution containing 2% formalin (Acros Organics) and we recorded the time mice spent licking/biting/guarding (nocifensive behaviors) the injected hindpaw over the next 60 min.

[12] = mouse plasma, 1.0 µM
in vitro = conditions: mouse, plasma
P-gp (human MDR1) = test: in vitro; conditions: dog, MDCK-MDR1, pH 7.4
[13] = target: panel of 320 non-olfactory GPCRs (Homo sapiens, UniProt P08908); format: cell-based
[14] = target: panel of 320 non-olfactory GPCRs (Homo sapiens, UniProt P30939); format: cell-based
[15] = target: panel of 320 non-olfactory GPCRs (Homo sapiens, UniProt P41145); format: cell-based
[16] = target: panel of 320 non-olfactory GPCRs (Homo sapiens, UniProt P41586); format: cell-based
[17] = target: panel of 320 non-olfactory GPCRs (Homo sapiens, UniProt P49146); format: cell-based
[18] = target: panel of 320 non-olfactory GPCRs (Homo sapiens, UniProt P51582); format: cell-based
[19] = target: panel of 320 non-olfactory GPCRs (Homo sapiens, UniProt Q02643); format: cell-based
[20] = target: panel of 320 non-olfactory GPCRs (Homo sapiens, UniProt Q14831); format: cell-based
[21] = target: panel of 320 non-olfactory GPCRs (Homo sapiens, UniProt Q16581); format: cell-based
[22] = target: panel of 320 non-olfactory GPCRs (Homo sapiens, UniProt Q86SM8); format: cell-based
[23] = target: panel of 320 non-olfactory GPCRs (Homo sapiens, UniProt Q8NFJ5); format: cell-based
[24] = target: panel of 320 non-olfactory GPCRs (Homo sapiens, UniProt Q969V1); format: cell-based
hCB2 = hCB2 (Homo sapiens, UniProt P34972); test: Cerep HTRF cAMP inhibition assay, hCB2 CHO-K1; format: cell-based; set-up: host or cells: HEK293SL cells, transient PEI transfection; conditions: for functional response, concentration-response point (FigS7d): replicate columns;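 on all read-outs here: compounds incubated 30 min at 37 °C with hCB2 CHO-K1 cells, cAMP detected by HTRF, HBSS as basal and reference agonist as stimulated control, run in triplicate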
Chain of hCB2 (P34972 whole entry): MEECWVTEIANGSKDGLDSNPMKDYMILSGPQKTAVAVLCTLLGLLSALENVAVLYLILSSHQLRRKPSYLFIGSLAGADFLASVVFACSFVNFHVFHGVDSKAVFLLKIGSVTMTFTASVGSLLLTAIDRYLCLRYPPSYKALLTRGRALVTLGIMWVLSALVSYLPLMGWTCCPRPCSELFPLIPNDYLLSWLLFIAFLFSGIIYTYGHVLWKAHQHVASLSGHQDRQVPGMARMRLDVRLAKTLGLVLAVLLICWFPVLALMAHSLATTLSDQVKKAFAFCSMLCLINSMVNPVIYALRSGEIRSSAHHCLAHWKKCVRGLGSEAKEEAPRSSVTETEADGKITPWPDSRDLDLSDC

Chain of panel of 320 non-olfactory GPCRs (Homo sapiens, UniProt O95665) (O95665 whole entry): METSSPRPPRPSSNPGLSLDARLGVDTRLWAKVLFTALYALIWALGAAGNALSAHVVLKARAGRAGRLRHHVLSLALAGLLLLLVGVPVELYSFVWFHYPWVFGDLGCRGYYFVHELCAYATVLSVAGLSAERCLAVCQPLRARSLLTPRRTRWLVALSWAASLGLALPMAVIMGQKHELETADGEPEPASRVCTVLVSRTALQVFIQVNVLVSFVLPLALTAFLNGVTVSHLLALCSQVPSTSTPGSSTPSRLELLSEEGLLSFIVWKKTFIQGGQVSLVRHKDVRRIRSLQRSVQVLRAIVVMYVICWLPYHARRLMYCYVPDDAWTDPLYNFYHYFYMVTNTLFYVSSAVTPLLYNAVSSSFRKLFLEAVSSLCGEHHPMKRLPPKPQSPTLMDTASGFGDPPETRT
Chain of panel of 320 non-olfactory GPCRs (Homo sapiens, UniProt Q86SM8) (Q86SM8 whole entry): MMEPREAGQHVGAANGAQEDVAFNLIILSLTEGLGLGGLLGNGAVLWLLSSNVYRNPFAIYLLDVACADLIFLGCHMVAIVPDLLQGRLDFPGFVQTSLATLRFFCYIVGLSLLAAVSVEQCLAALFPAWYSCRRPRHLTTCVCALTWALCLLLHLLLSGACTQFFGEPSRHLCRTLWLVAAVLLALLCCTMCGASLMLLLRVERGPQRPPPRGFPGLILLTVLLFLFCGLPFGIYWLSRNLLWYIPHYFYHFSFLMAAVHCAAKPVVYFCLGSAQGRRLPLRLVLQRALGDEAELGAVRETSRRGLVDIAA
Chain of panel of 320 non-olfactory GPCRs (Homo sapiens, UniProt Q8NFJ5) (Q8NFJ5 whole entry): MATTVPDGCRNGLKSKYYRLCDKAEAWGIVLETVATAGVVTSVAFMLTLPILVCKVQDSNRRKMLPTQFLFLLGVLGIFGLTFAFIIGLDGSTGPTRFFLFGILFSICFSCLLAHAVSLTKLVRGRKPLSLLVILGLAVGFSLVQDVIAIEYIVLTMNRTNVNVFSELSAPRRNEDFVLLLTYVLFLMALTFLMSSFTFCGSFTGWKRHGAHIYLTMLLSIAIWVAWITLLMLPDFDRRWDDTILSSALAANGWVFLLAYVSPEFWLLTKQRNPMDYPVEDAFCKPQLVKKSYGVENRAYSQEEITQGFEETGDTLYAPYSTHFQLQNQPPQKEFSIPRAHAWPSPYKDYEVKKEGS
Chain of panel of 320 non-olfactory GPCRs (Homo sapiens, UniProt Q02643) (Q02643 23-423): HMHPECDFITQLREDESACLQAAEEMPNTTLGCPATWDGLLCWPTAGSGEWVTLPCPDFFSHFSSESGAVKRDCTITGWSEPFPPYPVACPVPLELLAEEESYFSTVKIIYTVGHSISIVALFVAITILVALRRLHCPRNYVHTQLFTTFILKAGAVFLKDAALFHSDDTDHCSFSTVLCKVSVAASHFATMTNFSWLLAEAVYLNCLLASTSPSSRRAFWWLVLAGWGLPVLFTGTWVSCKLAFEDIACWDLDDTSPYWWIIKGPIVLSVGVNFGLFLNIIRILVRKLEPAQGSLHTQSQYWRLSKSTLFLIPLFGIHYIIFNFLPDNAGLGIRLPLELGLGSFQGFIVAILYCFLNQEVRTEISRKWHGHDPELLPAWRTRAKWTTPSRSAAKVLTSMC
Chain of panel of 320 non-olfactory GPCRs (Homo sapiens, UniProt Q969V1) (Q969V1 whole entry): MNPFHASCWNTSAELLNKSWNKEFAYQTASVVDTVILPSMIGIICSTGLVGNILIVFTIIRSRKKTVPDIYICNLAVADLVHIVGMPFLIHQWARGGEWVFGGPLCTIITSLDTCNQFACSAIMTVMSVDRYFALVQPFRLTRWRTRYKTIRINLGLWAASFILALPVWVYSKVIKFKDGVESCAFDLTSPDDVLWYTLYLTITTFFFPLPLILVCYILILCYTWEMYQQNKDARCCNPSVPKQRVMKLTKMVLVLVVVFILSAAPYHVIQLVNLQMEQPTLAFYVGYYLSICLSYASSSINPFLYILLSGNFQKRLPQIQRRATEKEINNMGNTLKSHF
Chain of panel of 320 non-olfactory GPCRs (Homo sapiens, UniProt P41145) (P41145 whole entry): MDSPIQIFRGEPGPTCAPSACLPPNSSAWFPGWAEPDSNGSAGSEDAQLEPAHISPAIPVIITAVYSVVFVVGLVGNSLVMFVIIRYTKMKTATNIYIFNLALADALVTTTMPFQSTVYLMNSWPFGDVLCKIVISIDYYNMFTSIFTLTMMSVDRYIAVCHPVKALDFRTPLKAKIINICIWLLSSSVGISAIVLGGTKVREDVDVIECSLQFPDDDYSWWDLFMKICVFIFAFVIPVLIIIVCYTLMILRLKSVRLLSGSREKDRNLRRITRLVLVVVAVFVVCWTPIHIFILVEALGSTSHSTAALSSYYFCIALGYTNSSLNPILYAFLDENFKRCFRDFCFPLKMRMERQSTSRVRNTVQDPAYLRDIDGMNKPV
Chain of panel of 320 non-olfactory GPCRs (Homo sapiens, UniProt O14843) (O14843 whole entry): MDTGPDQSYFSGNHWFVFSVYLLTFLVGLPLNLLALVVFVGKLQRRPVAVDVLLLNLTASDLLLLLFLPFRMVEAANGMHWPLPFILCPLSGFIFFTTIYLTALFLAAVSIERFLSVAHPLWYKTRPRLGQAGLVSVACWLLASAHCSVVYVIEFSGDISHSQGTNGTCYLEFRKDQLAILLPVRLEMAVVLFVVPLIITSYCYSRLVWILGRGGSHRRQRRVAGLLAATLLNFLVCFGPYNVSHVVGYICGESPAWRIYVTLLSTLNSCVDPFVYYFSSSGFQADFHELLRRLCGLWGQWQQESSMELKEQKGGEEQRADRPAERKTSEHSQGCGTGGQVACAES
Chain of panel of 320 non-olfactory GPCRs (Homo sapiens, UniProt Q8TDS5) (Q8TDS5 whole entry): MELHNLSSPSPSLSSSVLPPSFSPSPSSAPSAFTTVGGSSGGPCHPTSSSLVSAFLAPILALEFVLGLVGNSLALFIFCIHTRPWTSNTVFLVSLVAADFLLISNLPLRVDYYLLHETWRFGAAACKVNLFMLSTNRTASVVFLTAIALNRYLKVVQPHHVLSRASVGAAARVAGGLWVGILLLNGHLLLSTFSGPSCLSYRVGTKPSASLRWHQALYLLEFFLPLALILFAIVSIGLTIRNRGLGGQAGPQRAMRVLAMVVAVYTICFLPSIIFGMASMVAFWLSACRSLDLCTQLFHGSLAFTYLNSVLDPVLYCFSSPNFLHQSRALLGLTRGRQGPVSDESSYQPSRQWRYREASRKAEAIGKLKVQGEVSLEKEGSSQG
Chain of panel of 320 non-olfactory GPCRs (Homo sapiens, UniProt Q9H3N8) (Q9H3N8 whole entry): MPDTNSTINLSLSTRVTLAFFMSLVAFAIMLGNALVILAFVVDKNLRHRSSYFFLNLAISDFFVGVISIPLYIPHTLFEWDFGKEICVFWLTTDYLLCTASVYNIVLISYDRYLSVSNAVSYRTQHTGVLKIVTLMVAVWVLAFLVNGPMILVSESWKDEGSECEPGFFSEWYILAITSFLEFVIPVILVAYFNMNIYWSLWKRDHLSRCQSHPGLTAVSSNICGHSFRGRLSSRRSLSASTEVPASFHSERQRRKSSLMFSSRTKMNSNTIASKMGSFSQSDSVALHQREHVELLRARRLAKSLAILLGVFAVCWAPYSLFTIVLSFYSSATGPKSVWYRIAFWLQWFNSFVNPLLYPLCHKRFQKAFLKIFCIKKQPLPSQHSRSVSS
Chain of panel of 320 non-olfactory GPCRs (Homo sapiens, UniProt Q8IZ08) (Q8IZ08 whole entry): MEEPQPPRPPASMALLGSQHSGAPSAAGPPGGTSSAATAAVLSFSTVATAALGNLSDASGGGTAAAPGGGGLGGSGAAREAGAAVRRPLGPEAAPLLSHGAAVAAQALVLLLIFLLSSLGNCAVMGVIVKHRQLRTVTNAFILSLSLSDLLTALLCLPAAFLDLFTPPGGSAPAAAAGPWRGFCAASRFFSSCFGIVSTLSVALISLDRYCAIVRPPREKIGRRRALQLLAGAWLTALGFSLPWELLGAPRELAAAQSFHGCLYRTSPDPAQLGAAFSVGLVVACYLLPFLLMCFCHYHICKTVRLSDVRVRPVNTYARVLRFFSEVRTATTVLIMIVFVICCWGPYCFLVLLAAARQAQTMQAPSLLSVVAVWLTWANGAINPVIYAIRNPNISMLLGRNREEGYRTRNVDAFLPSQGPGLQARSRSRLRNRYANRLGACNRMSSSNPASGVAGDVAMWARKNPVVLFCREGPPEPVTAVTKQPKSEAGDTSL
Chain of panel of 320 non-olfactory GPCRs (Homo sapiens, UniProt P08908) (P08908 whole entry): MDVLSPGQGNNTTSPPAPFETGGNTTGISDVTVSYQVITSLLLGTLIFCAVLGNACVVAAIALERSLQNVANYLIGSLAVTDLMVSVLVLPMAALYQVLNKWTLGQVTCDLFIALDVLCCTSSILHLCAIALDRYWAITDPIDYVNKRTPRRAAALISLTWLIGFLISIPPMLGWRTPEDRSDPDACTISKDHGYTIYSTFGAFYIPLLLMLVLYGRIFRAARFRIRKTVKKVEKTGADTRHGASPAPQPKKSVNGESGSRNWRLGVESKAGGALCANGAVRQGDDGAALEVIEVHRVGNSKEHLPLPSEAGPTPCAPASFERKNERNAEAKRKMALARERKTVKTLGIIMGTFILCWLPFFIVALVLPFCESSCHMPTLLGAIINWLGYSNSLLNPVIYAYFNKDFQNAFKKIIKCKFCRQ

## COC(=O)[C@@](C)(NC(=O)c1cc(C)n(-c2cccc(C(F)(F)F)c2)n1)c1cccs1 [‘1350]
[1]
  Fold of Basal RLU: 0.6 and 0.8 and 1.1
[2]
  Fold of Basal RLU: 1.2 and 1 and 0.7 and 0.8
[3]
  Fold of Basal RLU: 0.7
[4]
  Fold of Basal RLU: 1.3 and 1.4 and 1 and 0.7
[5]
  Fold of Basal RLU: 1.2 and 0.9 and 1.6
[6]
  Fold of Basal RLU: 0.4 and 0.8 and 0.5
[7]
  Fold of Basal RLU: 0.6 and 0.7 and 0.8
[8]
  Fold of Basal RLU: 1.6 fold and 1.4 fold and 2.4 fold and 1.5 fold
Mice [9]; 0.2 mg/kg i.p.
  effect on paw withdrawal latency after CFA: increasing paw withdrawal latencies to well-above pre-CFA baseline thresholds
Mice [9]; 0.2 mg/kg, CFA-treated mice
  CFA inflammatory pain response normalised to baseline (Figure5a), individual animals: 134.669 and 178.501 and 55.3352 and 183.627 and 40.7039 and 122.724 and 119
Mice [10]; 0.2 mg/kg, test not printed on the sheet
  Individual animal scores (FigS11e): 289 and 48 and 256 and -101 and 11 and -145 and -65 and -179
Mice [10]; drug-paired vs vehicle-paired chamber
  conditioned place preference: does not induce preference
Mice [11]; 0.2 mg/kg i.p., 60 min
  effect on formalin nocifensive behaviors: profoundly decreased the duration of both phase 1 and phase 2 nocifensive behaviors
Mice [11]; Time 0 min
  formalin test response per time bin (Figure5c), individual animals: 0
Mice [11]; Time 5 min
  formalin test response per time bin (Figure5c), individual animals: 47.9 and 64.7 and 87.7 and 92.8 and 88.1
Mice [11]; Time 10 min
  formalin test response per time bin (Figure5c), individual animals: 0 (4×) and 6.3
Mice [11]; Time 15 min
  formalin test response per time bin (Figure5c), individual animals: 0 (3×) and 1.5 and 2.3
Mice [11]; Time 20 min
  formalin test response per time bin (Figure5c), individual animals: 2.9 and 0 (3×) and 3.6
Mice [11]; Time 25 min
  formalin test response per time bin (Figure5c), individual animals: 1.9 and 13.6 and 0 (2×) and 21.9
Mice [11]; Time 30 min
  formalin test response per time bin (Figure5c), individual animals: 0 (2×) and 85 and 92.7 and 5.3
Mice [11]; Time 35 min
  formalin test response per time bin (Figure5c), individual animals: 1.8 and 59 and 0 (2×) and 91.5
Mice [11]; Time 40 min
  formalin test response per time bin (Figure5c), individual animals: 2.3 and 173.3 and 5.2 and 106.7 and 40.7
Mice [11]; Time 45 min
  formalin test response per time bin (Figure5c), individual animals: 3.9 and 181.8 and 5.2 and 10 and 11.7
Mice [11]; Time 50 min
  formalin test response per time bin (Figure5c), individual animals: 8.3 and 48.5 and 11.2 and 3.8 and 50.2
Mice [11]; Time 55 min
  formalin test response per time bin (Figure5c), individual animals: 40.3 and 35.4 and 0 (3×)
Mice [11]; Time 60 min
  formalin test response per time bin (Figure5c), individual animals: 2.4 and 30.9 and 0 (3×)
[12]
  Mean % of bound compound: 94%
[12]; 5 h
  Stability: 11%
In vitro
  half-life at 1 µM: 41 min
  remaining at 20 min, 1 µM: 84%
  remaining at 40 min, 1 µM: 66%
  remaining at 1 h, 1 µM: 48%
  remaining at 2 h, 1 µM: 14%
P-gp (human MDR1)
  efflux ratio at 90 min, 10 μM: 1.3

## Cc1cc(C(=O)NC(C)(c2ccco2)c2ccco2)nn1-c1cccc(C(F)(F)F)c1 [‘4936]
[13]
  Fold of Basal RLU: 0.8 fold and 0.7 fold and 0.6 fold
[14]
  Fold of Basal RLU: 0.8 fold and 1.5 fold and 0.9 fold
[15]
  Fold of Basal RLU: 1.5 fold and 0.8 fold and 1 fold
[16]
  Fold of Basal RLU: 0.5 fold and 0.9 fold and 0.7 fold and 0.8 fold
[17]
  Fold of Basal RLU: 1.1 fold and 0.9 fold and 0.7 fold
[18]
  Fold of Basal RLU: 1.4 fold and 1.8 fold and 1.7 fold
[19]
  Fold of Basal RLU: 0.7 and 0.6 and 1
[20]
  Fold of Basal RLU: 0.5 and 1 and 0.9 and 0.6
[21]
  Fold of Basal RLU: 0.5 and 0.6 and 0.3
[22]
  Fold of Basal RLU: 0.9 fold and 1.5 fold and 1.3 fold
[23]
  Fold of Basal RLU: 0.6 fold and 0.7 fold and 0.5 fold
[24]
  Fold of Basal RLU: 1.7 and 1.4 and 1 and 1.6

## COC(=O)C(C)(NC(=O)c1cc(C)n(-c2cccc(C(F)(F)F)c2)n1)c1cccs1 (centres unmarked) [‘4042]
hCB2; CHO-K1, hCB2
  Emax: 72%
hCB2; Concentration [M] 1e-12
  functional response, concentration-response point (FigS7d): 9.2 and 15.9 and 20.5
hCB2; Concentration [M] 1e-11
  functional response, concentration-response point (FigS7d): 54.5 and 33.7 and 39.7
hCB2; Concentration [M] 1e-10
  functional response, concentration-response point (FigS7d): 72.4 and 68.7 and 74.5
hCB2; Concentration [M] 1e-9
  functional response, concentration-response point (FigS7d): 87.6 and 76.3 and 78.1
hCB2; Concentration [M] 1e-8
  functional response, concentration-response point (FigS7d): 74.4 and 84.9 and 81.3
hCB2; Concentration [M] 1e-7
  functional response, concentration-response point (FigS7d): 79.5 and 79.9 and 79.2
hCB2; Concentration [M] 1e-6
  functional response, concentration-response point (FigS7d): 80.1 and 76.3 and 83.8
hCB2; hCB2
  Cerep cAMP pEC50: 10.95 [10.7 – 11.6]
  EC50: 0.011 nM
